Our source for the relative viability values is the supplement of paper PMC10307832.

What all share (test): relative viability (nuclei count vs DMSO), 5 days (fraction); higher = more cells survive
Compound in assay [1]: CCC1=CN=CN=C1N2CCN(CC2)CC3=NC4=C(N3)C=C(C=C4)C(F)(F)F + Cc1nc(NC(=O)N2CCC[C@H]2C(N)=O)sc1-c1ccnc(C(C)(C)C(F)(F)F)c1 [Alpelisib] (partner 2 µM)
In outline:
(§1)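 Relative viability equals treated-well nuclei counts divided by vehicle-well nuclei counts. Counts came from 4× images of lung cancer cell lines grown in 1536-well plates for 5 days after pin-tool dosing on the day after seeding. Dosing used one drug alone or a fixed anchor-drug dose plus five library-drug doses (not always all listed) in √10 steps, and values are medians of duplicate plates.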

Compound in assay [2]: CCn1c(-c2nonc2N)nc2cnc(Oc3cccc(NC(=O)c4ccc(OCCN5CCOCC5)cc4)c3)cc21 + C[C@@H](Oc1cc(-c2cnn(C3CCNCC3)c2)cnc1N)c1c(Cl)ccc(F)c1Cl [Crizotinib] (partner 1 µM)
In outline: as §1

Compound in the assay “Mirin + Alpelisib”: N=C1NC(=O)/C(=C/c2ccc(O)cc2)S1 [Mirin] + Cc1nc(NC(=O)N2CCC[C@H]2C(N)=O)sc1-c1ccnc(C(C)(C)C(F)(F)F)c1 [Alpelisib] (partner 2 µM)
In outline:
as §1

Compound in assay [3]: CCn1c(-c2nonc2N)nc2cnc(Oc3cccc(NC(=O)c4ccc(OCCN5CCOCC5)cc4)c3)cc21 + Cc1nc(NC(=O)N2CCC[C@H]2C(N)=O)sc1-c1ccnc(C(C)(C)C(F)(F)F)c1 [Alpelisib] (partner 2 µM)
In outline:
as §1

Turning to NCI-H3122, the relative viability in assay [1] (first compound 0.04 µM) came to 0.954; in assay [1] (first compound 0.1265 µM) it was 0.77; in assay [1] (first compound 0.4 µM), 0.856; in assay [1] (first compound 1.265 µM), 1.01; in assay [1] (first compound 4 µM), 0.872; in assay [2] (first compound 0.04 µM), 0.266. Also, the relative viability in assay [2] (first compound 0.1265 µM) came out at 0.298; in assay [2] (first compound 0.4 µM), 0.342; in assay [2] (first compound 1.265 µM), 0.318; in assay [2] (first compound 4 µM), 0.346; in the assay with Mirin + Alpelisib (first compound 0.25 µM), 0.715; with Mirin + Alpelisib (first compound 0.7906 µM), 0.823. For the same cell line, the relative viability with Mirin + Alpelisib (first compound 2.5 µM) came to 0.729; with Mirin + Alpelisib (first compound 7.906 µM) it was 0.923; in the assay with Mirin + Alpelisib (first compound 25 µM) it was 0.821; in assay [3] (first compound 0.04 µM), 0.831; in assay [3] (first compound 0.1265 µM), 0.885; in assay [3] (first compound 0.4 µM), 0.782. In addition, the relative viability was determined as 0.729 in assay [3] (first compound 1.265 µM) and 0.82 in assay [3] (first compound 4 µM).
With PC-3 [JPC-3], the relative viability in assay [1] (first compound 0.04 µM) came to 1.06; in assay [1] (first compound 0.1265 µM), 0.94; in assay [1] (first compound 0.4 µM), 1.02; in assay [1] (first compound 1.265 µM), 1.04; in assay [1] (first compound 4 µM), 0.96; in assay [2] (first compound 0.04 µM), 0.961. For the same cell line, the relative viability in assay [2] (first compound 0.1265 µM) stood at 0.96; in assay [2] (first compound 0.4 µM) it was 1.04; in assay [2] (first compound 1.265 µM) it was 0.967; in assay [2] (first compound 4 µM), 0.939; with Mirin + Alpelisib (first compound 0.25 µM), 1.04; with Mirin + Alpelisib (first compound 0.7906 µM) it was 1.02. The relative viability came to 1.03 in the assay with Mirin + Alpelisib (first compound 2.5 µM); 1.07 with Mirin + Alpelisib (first compound 7.906 µM); 1.18 with Mirin + Alpelisib (first compound 25 µM); 1.1 in assay [3] (first compound 0.04 µM); 1.02 in assay [3] (first compound 0.1265 µM); 1.01 in assay [3] (first compound 0.4 µM). The relative viability in assay [3] (first compound 1.265 µM) was 1.07; in assay [3] (first compound 4 µM) it was 1.05.
PC-14: the relative viability was 1.07 in assay [1] (first compound 0.04 µM); 0.869 in assay [1] (first compound 0.1265 µM); 0.959 in assay [1] (first compound 0.4 µM); 0.766 in assay [1] (first compound 1.265 µM); 0.982 in assay [1] (first compound 4 µM); 0.874 in assay [2] (first compound 0.04 µM). Further, the relative viability in assay [2] (first compound 0.1265 µM) is 0.884; in assay [2] (first compound 0.4 µM), 0.87; in assay [2] (first compound 1.265 µM) it was 0.683; in assay [2] (first compound 4 µM), 0.7; with Mirin + Alpelisib (first compound 0.25 µM), 0.83; with Mirin + Alpelisib (first compound 0.7906 µM) it was 0.915. Further, the relative viability with Mirin + Alpelisib (first compound 2.5 µM) amounted to 1.01; in the assay with Mirin + Alpelisib (first compound 7.906 µM), 0.95; in the assay with Mirin + Alpelisib (first compound 25 µM), 1.05; in assay [3] (first compound 0.04 µM), 1.06; in assay [3] (first compound 0.1265 µM), 0.935; in assay [3] (first compound 0.4 µM), 0.871. The relative viability came to 0.77 in assay [3] (first compound 1.265 µM) and 0.805 in assay [3] (first compound 4 µM).
RERF-LC-KJ: the relative viability in assay [1] (first compound 0.04 µM) amounted to 0.866; in assay [1] (first compound 0.1265 µM), 0.676; in assay [1] (first compound 0.4 µM), 0.834; in assay [1] (first compound 1.265 µM), 0.582; in assay [1] (first compound 4 µM), 0.743; in assay [2] (first compound 0.04 µM) it was 0.886. Also, the relative viability in assay [2] (first compound 0.1265 µM) was found to be 0.822; in assay [2] (first compound 0.4 µM) it was 0.82; in assay [2] (first compound 1.265 µM) it was 0.535; in assay [2] (first compound 4 µM) it was 0.36; with Mirin + Alpelisib (first compound 0.25 µM), 0.822; with Mirin + Alpelisib (first compound 0.7906 µM), 0.898. Further, the relative viability was determined as 0.956 with Mirin + Alpelisib (first compound 2.5 µM); 0.916 in the assay with Mirin + Alpelisib (first compound 7.906 µM); 0.75 with Mirin + Alpelisib (first compound 25 µM); 0.846 in assay [3] (first compound 0.04 µM); 0.809 in assay [3] (first compound 0.1265 µM); 0.733 in assay [3] (first compound 0.4 µM). Also, the relative viability in assay [3] (first compound 1.265 µM) was 0.662; in assay [3] (first compound 4 µM), 0.507.
With SK-LU-1, the relative viability in assay [1] (first compound 0.04 µM) is 1.03; in assay [1] (first compound 0.1265 µM), 0.995; in assay [1] (first compound 0.4 µM), 1.04; in assay [1] (first compound 1.265 µM) it was 0.771; in assay [1] (first compound 4 µM), 1; in assay [2] (first compound 0.04 µM), 1.12. The relative viability was determined as 0.744 in assay [2] (first compound 0.1265 µM); 0.61 in assay [2] (first compound 0.4 µM); 0.46 in assay [2] (first compound 1.265 µM); 0.355 in assay [2] (first compound 4 µM); 1.12 with Mirin + Alpelisib (first compound 0.25 µM); 0.885 with Mirin + Alpelisib (first compound 0.7906 µM). Moreover, the relative viability with Mirin + Alpelisib (first compound 2.5 µM) is 1.07; in the assay with Mirin + Alpelisib (first compound 7.906 µM) it was 0.698; with Mirin + Alpelisib (first compound 25 µM), 0.53; in assay [3] (first compound 0.04 µM), 1.17; in assay [3] (first compound 0.1265 µM), 0.821; in assay [3] (first compound 0.4 µM), 0.599. The relative viability in assay [3] (first compound 1.265 µM) amounted to 0.42; in assay [3] (first compound 4 µM), 0.349.
For SK-MES-1, the relative viability in assay [1] (first compound 0.04 µM) came to 0.986; in assay [1] (first compound 0.1265 µM), 1.05; in assay [1] (first compound 0.4 µM), 0.852; in assay [1] (first compound 1.265 µM) it was 0.868; in assay [1] (first compound 4 µM), 0.86; in assay [2] (first compound 0.04 µM), 1.12. The relative viability in assay [2] (first compound 0.1265 µM) worked out at 0.883; in assay [2] (first compound 0.4 µM), 0.804; in assay [2] (first compound 1.265 µM), 0.742; in assay [2] (first compound 4 µM), 0.645; in the assay with Mirin + Alpelisib (first compound 0.25 µM) it was 0.976; with Mirin + Alpelisib (first compound 0.7906 µM), 0.908. Also, the relative viability with Mirin + Alpelisib (first compound 2.5 µM) came to 0.994; in the assay with Mirin + Alpelisib (first compound 7.906 µM), 0.969; with Mirin + Alpelisib (first compound 25 µM) it was 0.798; in assay [3] (first compound 0.04 µM), 0.924; in assay [3] (first compound 0.1265 µM) it was 0.735; in assay [3] (first compound 0.4 µM) it was 0.656. Also, the relative viability in assay [3] (first compound 4 µM) amounted to 0.684.
On to SW 1573, for which the relative viability in assay [1] (first compound 0.04 µM) came out at 0.591; in assay [1] (first compound 0.1265 µM) it was 0.646; in assay [1] (first compound 0.4 µM), 0.745; in assay [1] (first compound 1.265 µM), 0.579; in assay [1] (first compound 4 µM), 0.687; in assay [2] (first compound 0.04 µM), 0.874. For the same cell line, the relative viability in assay [2] (first compound 0.1265 µM) stood at 0.704; in assay [2] (first compound 0.4 µM), 0.707; in assay [2] (first compound 1.265 µM), 0.519; in assay [2] (first compound 4 µM), 0.391; in the assay with Mirin + Alpelisib (first compound 0.25 µM), 0.529; with Mirin + Alpelisib (first compound 0.7906 µM), 0.72. Also, the relative viability with Mirin + Alpelisib (first compound 2.5 µM) turned out to be 0.794; in the assay with Mirin + Alpelisib (first compound 7.906 µM), 0.665; with Mirin + Alpelisib (first compound 25 µM), 0.508; in assay [3] (first compound 0.04 µM) it was 0.968; in assay [3] (first compound 0.1265 µM) it was 0.823; in assay [3] (first compound 0.4 µM), 0.48. Also, the relative viability is 0.397 in assay [3] (first compound 1.265 µM) and 0.276 in assay [3] (first compound 4 µM).
